The values that follow come from patent publication US20190234926A1, “METHOD OF PREDICTING FLAVOR PERFORMANCE” (McCormick & Company, Incorporated, priority 2016, published 2019).

One series in a line: Polarity measured as dielectric constant with a dielectric constant meter. The series is classed as physicochemical. The conditions noted are these: at 20° C., general statement. The source says:
Polar solvents such as water heat up in a microwave much faster than non-polar oils. Flavors heat up somewhere in between depending on their polarity. Dipolar moment of molecules of various liquids is different and can be a measure of polarity of liquids. The dipolar moment is responsible for interaction of molecules in a liquid with the electromagnetic field of a microwave oven. One measure of dipolar moment is dielectric constant. Thus, dielectric constant is a sound measure of flavor polarity and can predict flavor properties and flavor-matrix interaction whether during processing or in final target applications. An example of one commercially available dielectric constant meter useful with the method described herein is a model BI-870 from Brookhaven Instruments. It can measure dielectric constant not only at 20° C. but in a broad temperature range.
In support of development of flavors, encapsulation technologies, and applications, dielectric constant of key solvents used in flavor formulation (Table 1) were measured and a variety of target flavors (Table 2). […] Dielectric constants of binary blends of components fall in the range between the dielectric constants of individual components.
Turning to `O` [Water deionized, Water], the Dielectric constant result is on record as “about 80”.

Still in this series, the particulars now being: flavor components and compounded flavors incl. listed solvent, at about 20° C.
Turning to `CC(=O)C(C)=O` [Diacetyl], the Dielectric constant was 4.4.

Staying with this series, now noted: solvents, at about 20° C.
In the case of `CC(O)CO` (stereo not drawn) [Propylene glycol], the Dielectric constant came to 28.7. In turn, `O` [Water deionized, Water] returned a Dielectric constant of 79.2. For `CCO` [Ethanol (95%), Ethanol], the Dielectric constant is 28.3.

`CC(C)O` [Isopropanol]: the Dielectric constant amounted to 20.8. Take `CC(=O)OCC(COC(C)=O)OC(C)=O` [Triacetin]: the Dielectric constant was 7.0. `OCc1ccccc1` [Benzyl alcohol] displayed a Dielectric constant of 13.8.

In the case of `OCC(O)CO` [Glycerin], the Dielectric constant worked out at 46.1.
